# Data reported in US20230288411A1, “POLYPEPTIDE, MULTIMER, SOLID PHASE, MEASUREMENT METHOD FOR TEST SUBSTANCE, AND REAGENT KIT” (SYSMEX CORPORATION, priority 2020, published 2023).
# Tests used:
# L-biotin-labeled albumin = test: SPR (Biacore T200) binding evaluation to L-biotin-labeled albumin; parameters: species or system bovine; conditions: analyte flowed at 30 μL/min up to 100 nM, single cycle method, albumin immobilized on sensor chip
# Experimental: (§1) A binding ability of D-streptavidin obtained in Example 1 to D-biotin as a natural form and L-biotin as an optical isomer of D-biotin was evaluated by an intermolecular interaction analyzer (Biacore T200) using SPR as a measurement principle.
# Similarly, L-biotin-labeled albumin was prepared using L-biotin-AC5-OSu [see (Amidation of L-biotin) described in Example 3 above].
# Bovine serum albumin was immobilized on flow cells 1 and 3 of a CMS sensor chip (manufactured by Cytiva) of a Biacore T200 system at a target level of 400 RU by an amine coupling method with an amine coupling kit (Cytiva). Further, L-biotin-labeled albumin and D-biotin-labeled albumin were immobilized at a target level of 400 RU to flow cells 2 and 4, respectively, similarly by an amine coupling method. Blocking was performed in each flow cell with 1 M ethanolamine solution, pH 8.5 (manufactured by Cytiva). […]
# (§2) Using HBS-EP+(manufactured by Cytiva) as a running buffer, the prepared D-tamavidin (trademark) 2 was flowed into each flow cell at a flow rate of 30 μL/min in the range of 100 pM to 100 nM by a single cycle method, and binding and dissociation to D-biotin or L-biotin was evaluated by Biacore T200 Evaluation Software (manufactured by Cytiva).
# D-biotin-labeled albumin = test: SPR (Biacore T200) binding evaluation to D-biotin-labeled albumin; parameters: species or system bovine; conditions: analyte flowed at 30 μL/min up to 100 nM, single cycle method, albumin immobilized on sensor chip
# Experimental: as §1
# An N,N-dimethylformamide solution (16.3 μL) containing 10 mg/mL D-biotin-AC5-OSu (manufactured by DOJINDO LABORATORIES) was added to 2.8 mL of 50 mg/mL bovine serum albumin/0.1 M phosphate buffer solution (pH 7.5), and the mixture was stirred, then allowed to stand at 35° C. for 1 hour. Thereafter, desalting was performed by PD-10 (17085101, manufactured by Cytiva) equilibrated with a 0.1 M phosphate buffer (pH 7.5), and D-biotin-labeled albumin was recovered. The number of labeled D-biotin per molecule of albumin by HABA method was 0.4.
# Bovine serum albumin was immobilized on flow cells 1 and 3 of a CMS sensor chip (manufactured by Cytiva) of a Biacore T200 system at a target level of 400 RU by an amine coupling method with an amine coupling kit (Cytiva). […]
# as §2
substance,measurement,setting,value
D-streptavidin: tetrameric polypeptide of 13th to 139th amino acids of SEQ ID NO: 1 composed of D-amino acid residues,binding to L-biotin-labeled albumin (SPR sensorgram),L-biotin-labeled albumin,very strongly bound
same,binding to D-biotin-labeled albumin (SPR sensorgram),D-biotin-labeled albumin,not substantially bound
natural core streptavidin: commercially available tetrameric natural core streptavidin (manufactured by Roche) [reference compound],binding to D-biotin-labeled albumin (SPR sensorgram),D-biotin-labeled albumin,very strongly bound
